Experimental data taken from patent publication US20250230193A1, “CYCLIC COMPOUND HAVING SELECTIVE KRAS INHIBITORY EFFECT ON HRAS AND NRAS” (CHUGAI SEIYAKU KABUSHIKI KAISHA, priority 2022, published 2025).
Where a SMILES comes first, the peptide text is derived from it. Bridges are numbered along the chain shown (N, C = ends). [ ]: non-standard residue; d: D form. The star is where a group is joined. hPhe(3-Cl-4-CF3) = N[C@@H](CCc1ccc(C(F)(F)F)c(Cl)c1)C(=O)O; NPrPhe(4-CF3) = CCCN[C@@H](Cc1ccc(C(F)(F)F)cc1)C(=O)O; NMeGly(cPent) = CN[C@H](C(=O)O)C1CCCC1; Pro(4,4-Me2) = CC1(C)CN[C@H](C(=O)O)C1; NMeD = CN[C@@H](CC(=O)O)C(=O)O; NMeL = CN[C@@H](CC(C)C)C(=O)O; Morpholide = C1CN(*)CCO1; Ac5c = NC1(C(=O)O)CCCC1; Aze = O=C(O)[C@@H]1CCN1; NEtG = CCNCC(=O)O; Sar = CNCC(=O)O

How the values were obtained:
[1] = molecular target: GDP-bound NRAS wild-type protein (Homo sapiens, UniProt P01111); assay: Binding to NRAS by surface plasmon resonance (SPR), Single Cycle Kinetics; conditions: SPR; for NRAS/KRAS (ratio of KD value with respect to NRAS to KD value with respect to KRAS) / NRAS/KRAS (ratio of KD value for NRAS to KD value for KRAS): GDP-bound NRAS wild-type vs GDP-bound KRAS wild-type
Sequence of GDP-bound NRAS wild-type protein (P01111 whole entry): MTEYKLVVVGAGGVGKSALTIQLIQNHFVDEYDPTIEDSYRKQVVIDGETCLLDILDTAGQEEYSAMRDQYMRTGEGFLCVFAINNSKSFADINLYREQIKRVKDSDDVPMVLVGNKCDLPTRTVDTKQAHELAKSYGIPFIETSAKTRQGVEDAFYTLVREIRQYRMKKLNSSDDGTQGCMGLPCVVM

[2] = molecular target: GDP-bound HRAS wild-type protein (Homo sapiens, UniProt P01112); assay: Binding to HRAS by surface plasmon resonance (SPR), Single Cycle Kinetics; conditions: SPR; for HRAS/KRAS (ratio of KD value with respect to HRAS to KD value with respect to KRAS) / HRAS/KRAS (ratio of KD value for HRAS to KD value for KRAS): GDP-bound HRAS wild-type vs GDP-bound KRAS wild-type
Sequence of GDP-bound HRAS wild-type protein (P01112 whole entry): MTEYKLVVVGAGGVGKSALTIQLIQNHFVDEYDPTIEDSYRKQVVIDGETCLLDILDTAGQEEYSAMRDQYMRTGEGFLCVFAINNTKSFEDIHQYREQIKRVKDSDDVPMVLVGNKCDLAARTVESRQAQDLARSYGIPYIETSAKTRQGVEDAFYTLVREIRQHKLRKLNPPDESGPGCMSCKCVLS

| SMILES | NRAS/KRAS (ratio of KD value with respect to NRAS to KD value with respect to KRAS) [1] | HRAS/KRAS (ratio of KD value with respect to HRAS to KD value with respect to KRAS) [2] | NRAS/KRAS (ratio of KD value for NRAS to KD value for KRAS) ([1]; KD ratio) | HRAS/KRAS (ratio of KD value for HRAS to KD value for KRAS) ([2]; KD ratio) | other results |
| --- | --- | --- | --- | --- | --- |
| CC[C@H](C)[C@@H]1NC(=O)[C@H](CC(C)C)N(C)C(=O)C[C@@H](C(=O)N(C)C)N(C)C(=O)[C@H](C2CCCC2)N(C)C(=O)C2(CC(C)(C)C2)NC(=O)[C@@H]2C[C@H](C)CN2C(=O)[C@H](CCc2ccc(C(F)(F)F)c(OC)c2)NC(=O)CN(C)C(=O)[C@H](Cc2ccc(C)cc2)N2CC/C=C\C[C@@H](C2=O)N(C)C(=O)[C@@H]2CCCN2C1=O [PP2409] | A (a compound having 10 or more and less than 20 is denoted as A) | B (a compound having 3 or more and less than 10 is denoted as B) | – | – | – |
| CC[C@H](C)[C@@H]1NC(=O)[C@H](CC)N(C)C(=O)C[C@@H](C(=O)N(C)C)N(C)C(=O)[C@H](C2CCCC2)N(C)C(=O)C2(CCCC2)N(C)C(=O)[C@@H]2CCCN2C(=O)[C@H](CCc2cc(F)c(C(F)(F)F)c(F)c2)NC(=O)CN(C)C(=O)[C@H](Cc2ccc(C)cc2)N2CC/C=C\C[C@@H](C2=O)N(C)C(=O)CN(C)C1=O [PP1807] | – | – | A (a compound having 10 or more and less than 20 is denoted as A) | B (a compound having 3 or more and less than 10 is denoted as B) | – |
| CCCN1C(=O)CN(C)C(=O)CN(C)C(=O)[C@H]([C@@H](C)CC)NC(=O)[C@H](CC(C)C)N(C)C(=O)C[C@@H](C(=O)N2CCOCC2)N(C)C(=O)[C@H](C2CCCC2)N(C)C(=O)C2(CCCC2)NC(=O)[C@@H]2CCN2C(=O)[C@H](CCc2ccc(C(F)(F)F)c(Cl)c2)NC(=O)CN(C)C(=O)[C@@H]1Cc1ccc(C(F)(F)F)cc1 [PP0260] ([NMeL]I[Sar][Sar][NPrPhe(4-CF3)][Sar][hPhe(3-Cl-4-CF3)][Aze][Ac5c][NMeGly(cPent)][NMeD]-Morpholide; lactam N-11) | – | – | – | – | NRAS/KRAS (ratio of KD for GDP-bound NRAS wild-type to KD for KRAS) ([1]; KD ratio NRAS/KRAS): B (a compound having 3 or more and less than 10 is denoted as B); HRAS/KRAS (ratio of KD for GDP-bound HRAS wild-type to KD for KRAS) ([2]; KD ratio HRAS/KRAS): C (A compound having a KD ratio of 0.1 or more and less than 3 is denoted as C) |
| CC[C@H](C)[C@@H]1NC(=O)[C@H](CC)N(C)C(=O)C[C@@H](C(=O)N(C)C)N(C)C(=O)[C@H](C2CCCC2)N(C)C(=O)C2(CC(C)(C)C2)NC(=O)[C@@H]2C[C@H](C)CN2C(=O)[C@H](CCc2ccc(C(F)(F)F)c(Cl)c2)NC(=O)CN(C)C(=O)[C@H](Cc2ccc(C)cc2)N2CC/C=C\C[C@@H](C2=O)N(C)C(=O)CN(C)C1=O [PP1844] | – | – | A (a compound having 10 or more and less than 20 is denoted as A) | B (a compound having 3 or more and less than 10 is denoted as B) | – |
| CCC[C@H]1C(=O)N[C@@H]([C@@H](C)CC)C(=O)N(C2CC2)CC(=O)N(C)[C@H]2C/C=C\CCN(C2=O)[C@@H](Cc2ccc(C(F)(F)F)cc2)C(=O)N(C)CC(=O)N[C@@H](CCc2ccc(C(F)(F)F)c(OC)c2)C(=O)N2C[C@H](OCC)C[C@H]2C(=O)NC2(CC(C)(C)C2)C(=O)N(C)[C@@H](C2CCCC2)C(=O)N(C)[C@H](C(=O)N(C)C)CC(=O)N1C [PP2105] | A (a compound having 10 or more and less than 20 is denoted as A) | A (a compound having 10 or more and less than 20 is denoted as A) | – | – | – |
| CCCN1C(=O)CN(C)C(=O)CN(CC)C(=O)[C@H]([C@@H](C)CC)NC(=O)[C@H](CC(C)C)N(C)C(=O)C[C@@H](C(=O)N2CCOCC2)N(C)C(=O)[C@H](C2CCCC2)N(C)C(=O)C2(CCCC2)NC(=O)[C@@H]2CC(C)(C)CN2C(=O)[C@H](CCc2ccc(C(F)(F)F)c(Cl)c2)NC(=O)CN(C)C(=O)[C@@H]1Cc1ccc(C(F)(F)F)cc1 [PP0450] ([NMeL]I[NEtG][Sar][NPrPhe(4-CF3)][Sar][hPhe(3-Cl-4-CF3)][Pro(4,4-Me2)][Ac5c][NMeGly(cPent)][NMeD]-Morpholide; lactam N-11) | – | – | – | – | NRAS/KRAS (ratio of KD value with respect to GDP-bound NRAS wild-type protein to KD value with respect to KRAS) ([1]; KD ratio NRAS/KRAS): B (a compound having 3 or more and less than 10 is denoted as B); HRAS/KRAS (ratio of KD value with respect to GDP-bound HRAS wild-type protein to KD value with respect to KRAS) ([2]; KD ratio HRAS/KRAS): C (A compound having a KD ratio of 0.1 or more and less than 3 is denoted as C) |
| C=CC[C@H]1C(=O)N[C@@H]([C@@H](C)CC)C(=O)N(C)CC(=O)N(C)[C@H]2C/C=C\CCN(C2=O)[C@@H](Cc2ccc(C(F)(F)F)cc2)C(=O)N(C)CC(=O)N[C@@H](CCc2cc(F)c(C(F)(F)F)c(F)c2)C(=O)N2C[C@H](OCC)C[C@H]2C(=O)NC2(CCC2)C(=O)N(C)[C@@H](C2CCCC2)C(=O)N(C)[C@H](C(=O)N(C)C)CC(=O)N1C [PP1114] | – | – | – | – | NRAS/KRAS (ratio of KD value with respect to NRAS to KD value with respect to KRAS) ([1]; KD ratio): A (a compound having 10 or more and less than 20 is denoted as A); HRAS/KRAS (ratio of KD value with respect to HRAS to KD value with respect to KRAS) ([2]; KD ratio): A (a compound having 10 or more and less than 20 is denoted as A) |
| CCCC[C@H]1C(=O)N[C@@H]([C@@H](C)CC)C(=O)N(C)CC(=O)N(C)[C@H]2C/C=C\CCN(C2=O)[C@@H](Cc2ccc(C(F)(F)F)cc2)C(=O)N(C)CC(=O)N[C@@H](CCc2cc(F)c(C(F)(F)F)c(F)c2)C(=O)N2C[C@H](OCC)C[C@H]2C(=O)NC2(CC(F)(F)C2)C(=O)N(C)[C@@H](C2CCCC2)C(=O)N(C)[C@H](C(=O)N(C)C)CC(=O)N1C [PP1740] | – | – | A (a compound having 10 or more and less than 20 is denoted as A) | A (a compound having 10 or more and less than 20 is denoted as A) | – |
| CCC[C@H]1C(=O)N[C@@H]([C@@H](C)CC)C(=O)N(C2CC2)CC(=O)N(C)[C@H]2C/C=C\CCN(C2=O)[C@@H](Cc2ccc(C)cc2)C(=O)N(C)CC(=O)N[C@@H](CCc2cc(F)c(C(F)(F)F)c(F)c2)C(=O)N2C[C@H](OCC)C[C@H]2C(=O)N(C)C2(CCC2)C(=O)N(C)[C@@H](C2CCCC2)C(=O)N(C)[C@H](C(=O)N2CCCC2)CC(=O)N1C [PP3113, (2S,8S,12R,14S,20S,23S,27S,30S,36S,38Z)-20-cyclopentyl-32-cyclopropyl-8-[2-[3,5-difluoro-4-(trifluoromethyl)phenyl]ethyl]-12-ethoxy-4,16,19,22,26,35-hexamethyl-30-[(1S)-1-methylpropyl]-27-propyl-2-(p-tolylmethyl)-23-(pyrrolidine-1-carbonyl)spiro[1,4,7,10,16,19,22,26,29,32,35-undecazatricyclo[34.5.1.0^10,14]dotetracont-38-ene-17,1′-cyclobutane]-3,6,9,15,18,21,25,28,31,34,42-undecone] | – | – | – | – | NRAS/KRAS (ratio of KD value with respect to GDP-bound NRAS wild-type protein to KD value with respect to KRAS) ([1]; KD ratio NRAS/KRAS, GDP-bound wild-type proteins): A (a compound having 10 or more and less than 20 is denoted as A); HRAS/KRAS (ratio of KD value with respect to GDP-bound HRAS wild-type protein to KD value with respect to KRAS) ([2]; KD ratio HRAS/KRAS, GDP-bound wild-type proteins): A (a compound having 10 or more and less than 20 is denoted as A) |
| CCCN(C)C(=O)[C@@H]1CC(=O)N(C)[C@@H](C2CC2)C(=O)N[C@@H]([C@@H](C)CC)C(=O)N(C)CC(=O)N(C)[C@H]2C/C=C\CCN(C2=O)[C@@H](Cc2ccc(C(F)(F)F)cc2)C(=O)N(C)CC(=O)N[C@@H](CCc2ccc(C(F)(F)F)c(OC)c2)C(=O)N2C[C@@H](C)C[C@H]2C(=O)NC2(CCC2)C(=O)N(C)[C@@H](C2CCCC2)C(=O)N1C [PP2070] | A (a compound having 10 or more and less than 20 is denoted as A) | A (a compound having 10 or more and less than 20 is denoted as A) | – | – | – |
